Where two headings read alike, the source gives them in different places.
How the values were obtained:
DYRK1A = DYRK1A (Rattus norvegicus, UniProt Q63470); assay: DYRK1A in vitro kinase assay (33P-ATP, Woodtide substrate); format: biochemical
Description: (§1) Buffer A: MgCl2 (10 mM), 1 mM ethylene glycol-bis(2-aminoethylether)-N,N,N',N'-tetraacetic acid (EGTA), 1 mM dithiothreitol (DTT), 25 mM Tris-HCl pH 7.5, 50 μg heparin/mL.
(§2) Controls were performed with appropriate dilutions of dimethylsulfoxide (DMSO). IC50 values were calculated from dose-response curves established by Sigma-Plots. The GSK-3, CK1, DYRK1A and CLK1 peptide substrates were obtained from Proteogenix (Oberhausbergen, France).
(§3) CDK5/p25. (Human, recombinant) was prepared as previously described. […] ATP (3000 Ci/mmol; 10 mCi/mL) in a final volume of 30 μL. After 30 min incubation at 30 °C, 25 μL aliquots of supernatant were spotted onto sheets of Whatman P81 phosphocellulose paper, and 20 s later, the filters were washed eight times (for at least 5 min each time) in a solution of 10 mL phosphoric acid/L of water. The wet filters were counted in the presence of 1 mL ACS (Amersham) scintillation fluid.

CK1δ/ε = CK1δ/ε in vitro kinase assay (33P-ATP, CK1-specific peptide substrate); format: biochemical, Porcine; conditions: 15 μM ATP, 30 min at 30 °C, triplicate; <50% inhibition at 10 µM reported as >10
Description: as §2, §3
CK1δ/ε. (Porcine brain, native) was assayed as described for CDK5/p25, but using the CK1-specific peptide substrate […]pSAYSITA [23].

CDK5/p25 = target: T1, CDK5/p25 (Homo sapiens, UniProt Q00535); assay: CDK5/p25 in vitro kinase assay (33P-ATP, histone H1); format: biochemical; conditions: read-out: CDK5 IC50
T1 construct: made in house
T1 sequence (Q00535 whole entry): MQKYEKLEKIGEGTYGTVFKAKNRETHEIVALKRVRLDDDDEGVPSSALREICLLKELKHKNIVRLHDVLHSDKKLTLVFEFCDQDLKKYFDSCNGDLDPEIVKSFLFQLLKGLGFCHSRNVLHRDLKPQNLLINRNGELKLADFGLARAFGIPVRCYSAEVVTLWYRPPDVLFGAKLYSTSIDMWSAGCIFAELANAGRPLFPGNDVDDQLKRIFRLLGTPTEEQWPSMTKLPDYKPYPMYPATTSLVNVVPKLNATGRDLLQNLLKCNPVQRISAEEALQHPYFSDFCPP
T1 sequence (Q15078 99-307 partner limits assumed): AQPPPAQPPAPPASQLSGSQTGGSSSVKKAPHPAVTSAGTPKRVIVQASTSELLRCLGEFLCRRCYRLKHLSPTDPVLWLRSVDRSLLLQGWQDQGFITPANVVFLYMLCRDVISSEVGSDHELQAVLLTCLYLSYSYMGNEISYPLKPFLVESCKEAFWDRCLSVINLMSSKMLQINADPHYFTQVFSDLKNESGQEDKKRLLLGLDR
Description: as §1, §2, §3

GSK-3α/β = GSK-3α/β in vitro kinase assay (33P-ATP, GS-1 peptide); format: biochemical, Porcine; conditions: 15 μM ATP, 30 min at 30 °C, triplicate; <50% inhibition at 10 µM reported as >10; read-out: GSK3 IC50
Description: as §1, §2, §3
GSK-3α/β. (Porcine brain, native) was assayed as described for CDK5/p25, but in buffer A and using a GSK-3 specific substrate (GS-1: […]pSEDEEE) (pS stands for phosphorylated serine).

[1] = 15 μM ATP, 30 min at 30 °C, triplicate, <50% inhibition at 10 µM reported as >10

Row | SMILES | IC50 (DYRK1A) | IC50 (CK1δ/ε) | IC50 (CDK5/p25) | IC50 (GSK-3α/β) | melting point | IC50 (DYRK1A; [1]) | IC50 (CDK5/p25; [1])
1 | COc1ccc(Nc2ncnc3ccc4nc(C#N)sc4c23)cc1 [Compound 7, 9-(4-Methoxyphenylamino)thiazolo[5,4-f]quinazoline-2-carbonitrile] | > 10 µM | > 10 µM | > 10 µM | > 10 µM | > 260 °C | – | –
2 | N#Cc1nc2ccc3ncnc(Nc4ccc(Br)cc4F)c3c2s1 [Compound 9, 9-(4-Bromo-2-fluorophenylamino)thiazolo[5,4-f]quinazoline-2-carbonitrile] | > 10 µM | > 10 µM | > 10 µM | > 10 µM | > 260 °C | – | –
3 | N#Cc1nc2ccc3ncnc(Nc4ccc5c(c4)OCO5)c3c2s1 [Compound 8, 9-(Benzo[d][1,3]dioxol-5-ylamino)thiazolo[5,4-f]quinazoline-2-carbonitrile] | > 10 µM | > 10 µM | > 10 µM | > 10 µM | > 260 °C | – | –
4 | N#Cc1nc2ccc3ncnc(Nc4ccc(F)c(Cl)c4)c3c2s1 [Compound 10, 9-(3-Chloro-4-fluorophenylamino)thiazolo[5,4-f]quinazoline-2-carbonitrile] | > 10 µM | > 10 µM | > 10 µM | > 10 µM | 252 °C | – | –
5 | N=C(NCCN1CCCCC1)c1nc2ccc3ncnc(Nc4ccc(Br)cc4F)c3c2s1 [Compound 9b, 9-(4-Bromo-2-fluorophenylamino)-N-(2-(piperidin-1-yl)ethyl)thiazolo[5,4-f]quinazoline-2-carboxi-midamide] | – | > 10 µM | – | 0.53 µM | – | > 10 µM | > 10 µM
6 | N=C(NCCN1CCOCC1)c1nc2ccc3ncnc(Nc4ccc5c(c4)OCO5)c3c2s1 [Compound 8a, 9-(Benzo[d][1,3]dioxol-5-ylamino)-N-(2-morpholinoethyl)thiazolo[5,4-f]quinazoline-2-carboximidamide] | 2.2 µM | > 10 µM | > 10 µM | 0.97 µM | – | – | –
7 | COc1ccc(Nc2ncnc3ccc4nc(C(=N)NCCN(C)C)sc4c23)cc1 [Compound 7d, N-(2-(Dimethylamino)ethyl)-9-(4-methoxyphenylamino)thiazolo[5,4-f]quinazoline-2-carboximidamide] | > 10 µM | > 10 µM | > 10 µM | > 10 µM | – | – | –
8 | N=C(NCCN1CCCC1)c1nc2ccc3ncnc(Nc4ccc(Br)cc4F)c3c2s1 [Compound 9c, 9-(4-Bromo-2-fluorophenylamino)-N-(2-(pyrrolidin-1-yl)ethyl)thiazolo[5,4-f]quinazoline-2-carboxi-midamide] | – | > 10 µM | – | 2.2 µM | – | > 10 µM | > 10 µM
9 | COC(=N)c1nc2ccc3ncnc(Nc4ccc5c(c4)OCO5)c3c2s1 [Compound 8i, Methyl 9-(benzo[d][1,3]dioxol-5-ylamino)thiazolo[5,4-f]quinazoline-2-carbimidate] | 0.047 µM | > 10 µM | > 10 µM | 0.66 µM | – | – | –
10 | N=C(NCc1ccccc1)c1nc2ccc3ncnc(Nc4ccc(F)c(Cl)c4)c3c2s1 [Compound 10f, N-Benzyl-9-(3-chloro-4-fluorophenylamino)thiazolo[5,4-f]quinazoline-2-carboximidamide] | > 10 µM | > 10 µM | > 10 µM | > 10 µM | – | – | –
11 | CN(C)C(=N)c1nc2ccc3ncnc(Nc4ccc(F)c(Cl)c4)c3c2s1 [Compound 10g, 9-(3-Chloro-4-fluorophenylamino)-N,N-dimethylthiazolo[5,4-f]quinazoline-2-carboximidamide] | 6.5 µM | > 10 µM | > 10 µM | 7.2 µM | – | – | –
12 | COc1ccc(Nc2ncnc3ccc4nc(C(=N)NCc5ccccc5)sc4c23)cc1 [Compound 7f, N-Benzyl-9-(4-methoxyphenylamino)thiazolo[5,4-f]quinazoline-2-carboximidamide] | 8 µM | > 10 µM | > 10 µM | 2 µM | – | – | –
13 | COc1ccc(Nc2ncnc3ccc4nc(C(=N)N(C)C)sc4c23)cc1 [Compound 7g, 9-(4-Methoxyphenylamino)-N,N-dimethylthiazolo[5,4-f]quinazoline-2-carboximidamide] | 0.7 µM | > 10 µM | > 10 µM | 1.1 µM | – | – | –
14 | NC(=O)c1nc2ccc3ncnc(Nc4ccc5c(c4)OCO5)c3c2s1 [Compound 8h, 9-(Benzo[d][1,3]dioxol-5-ylamino)thiazolo[5,4-f]quinazoline-2-carboxamide] | 0.8 µM | > 10 µM | > 10 µM | 0.77 µM | – | – | –
15 | N=C(NCc1ccccc1)c1nc2ccc3ncnc(Nc4ccc(Br)cc4F)c3c2s1 [Compound 9f, N-Benzyl-9-(4-bromo-2-fluorophenylamino)thiazolo[5,4-f]quinazoline-2-carboximidamide] | > 10 µM | > 10 µM | > 10 µM | 1.8 µM | – | – | –

— paper PMC6270991, “Design and Synthesis of Thiazolo[5,4-f]quinazolines as DYRK1A Inhibitors, Part I” (Molecules, 2014)
